Experimental data from publication PMC8226722, “Comparison of Solution Chemical Properties and Biological Activity of Ruthenium Complexes of Selected β-Diketone, 8-Hydroxyquinoline and Pyrithione Ligands” (Pharmaceuticals, 2021).

Legend:
[1] = test system: MRC-5 normal human embryonal lung fibroblast cells; assay: MTT cytotoxicity assay, MRC-5; assay type: cell-based; settings: 72 h
Protocol: (§1) Human colonic adenocarcinoma cell lines Colo 205 doxorubicin-sensitive (ATCC-CCL-222) and Colo 320/MDR-LRP multidrug resistant expressing ABCB1 (MDR1)-LRP (ATCC-CCL-220.1) were purchased from LGC Promochem (Teddington, UK). […] Cell lines were incubated at 37 °C, in a 5% CO2, 95% air atmosphere. The semi-adherent human colon cancer cells were detached with Trypsin-Versene (EDTA, Sigma, Steinheim, Germany) solution for 5 min at 37 °C. MRC-5 human embryonal lung fibroblast cell lines (ATCC CCL-171) were purchased from LGC Promochem. […] The cell lines were incubated at 37 °C, in a 5% CO2, 95% air atmosphere.
(§2) In the study MRC-5 non-cancerous human embryonic lung fibroblast and human colonic adenocarcinoma cell lines (doxorubicin-sensitive Colo 205 and multidrug resistant Colo 320 colonic adenocarcinoma cells) were used to determine the effect of compounds on cell growth. The effects of increasing concentrations of compounds on cell growth were tested in 96-well flat-bottomed microtiter plates. The stock solutions of the compounds were prepared in DMSO, and in the final samples the DMSO content was always lower than 1%. The compounds were diluted in a volume of 100 μL of medium.
(§3) In case of the colonic adenocarcinoma cells, the two-fold serial dilutions of compounds were prepared in 100 μL of RPMI 1640, horizontally. The semi-adherent colonic adenocarcinoma cells were treated with Trypsin-Versene (EDTA) solution. They were adjusted to a density of 1 × 10^4 cells in 100 μL of RPMI 1640 medium, and were added to each well, with the exception of the medium control wells. The final volume of the wells containing compounds and cells was 200 μL.
(§4) The culture plates were incubated at 37 °C for 72 h; at the end of the incubation period, 20 μL of MTT (Sigma) solution (from a stock solution of 5 mg/mL) were added to each well. After incubation at 37 °C for 4 h, 100 μL of sodium dodecyl sulfate (SDS) (Sigma) solution (10% in 0.01 M HCl) were added to each well and the plates were further incubated at 37 °C overnight. Cell growth was determined by measuring the optical density (OD) at 540/630 nm with Multiscan EX ELISA reader (Thermo Labsystems, Cheshire, WA, USA). […] Curves were fitted by Prism software (GraphPad Software Inc., San Diego, CA, USA) using the sigmoidal dose-response model (comparing variable and fixed slopes). The IC50 values were obtained from at least 3 independent experiments.

[2] = test system: Enterococcus faecalis ATCC 29212; assay: MIC determination (CLSI broth microdilution); assay type: cell-based; settings: Gram-positive, ATCC 29212, 18 h
Protocol: (§5) Wild-type Escherichia coli K-12 AG100 strain [argE3 thi-1 rpsL xyl mtl Δ(gal-uvrB) supE44] expressing the AcrAB TolC EP at its basal level and Klebsiella pneumoniae ATCC 49,619 Gram-negative strains were studied in the experiments. Staphylococcus aureus ATCC 43,300 methicillin-resistant (MRSA) strain and Enterococcus faecalis ATCC 29,212 strain were used as Gram-positive strains in the assays. MIC values of the complexes were determined in 96-well plates based on the Clinical and Laboratory Standard Institute guidelines (CLSI guidelines). The stock solutions of the compounds (dissolved in DMSO using 10 mM concentration) were diluted in 100 μL of Mueller Hinton Broth. Then 10^−4 dilution of an overnight bacterial culture in 100 μL of medium was added to each well, with the exception of the medium control wells.

[3] = test system: Staphylococcus aureus ATCC 43300 methicillin-resistant (MRSA); assay: MIC determination (CLSI broth microdilution); assay type: cell-based; settings: Gram-positive, MRSA ATCC 43300, 18 h
Protocol: as §5

[4] = test system: Escherichia coli K-12 AG100; assay: MIC determination (CLSI broth microdilution); assay type: cell-based; settings: Gram-negative, AG100, 18 h
Protocol: as §5

[5] = test system: Klebsiella pneumoniae ATCC 49619; assay: MIC determination (CLSI broth microdilution); assay type: cell-based; settings: Gram-negative, ATCC 49619, 18 h
Protocol: as §5

[6] = Parallel artificial membrane permeability assay (PAMPA); settings: for recovery: pH 7.4; for Peff, effective passive permeability: pH 7.4, 100 mM chloride, 5 h
Protocol: Chloride ion concentrations of 4, 24 and 100 mM were chosen according to the chloride content of the nucleus, cytosol and blood serum, respectively. […] Then parallel artificial membrane permeability assay (PAMPA) was used to estimate the ability of the complexes to penetrate membranes by passive diffusion and the effective passive permeability coefficients (Peff) obtained for complexes 1–3 are shown in Table 4 (in case of 4, there are no data due to formation of precipitate).
Distribution coefficients at physiological pH (D7.4) of the complexes were determined by the traditional shake-flask method in n-octanol/buffered aqueous solution at pH 7.40 (20 mM phosphate buffer) at various chloride concentrations and at 25.0 ± 0.2 °C using UV-vis detection as described in our former works [37, 38, 42]. PAMPA was applied for the complexes with a Gentest pre-coated PAMPA Plate System (Corning, Corning, NY, USA) [56]. Briefly, a 96-well filter plate was used as the permeation acceptor and the 96-well bottom plate was used as the permeation donor. For simplicity, PBS was used both as donor and acceptor buffer throughout this study. […] Peff values were calculated according to the equation reported by Yu et al. [57].

[7] = test system: Colo 320 multidrug resistant human colonic adenocarcinoma cell line; assay: MTT cytotoxicity assay, Colo 320; assay type: cell-based; settings: for IC50: 72 h, MTT; for S.I. MRC-5/Colo 320: ratio of the indicated IC50 values
Protocol: as §1, §2, §3, §4

[8] = test system: Colo 205 chemo-sensitive human colonic adenocarcinoma cell line; assay: MTT cytotoxicity assay, Colo 205; assay type: cell-based; settings: for IC50: 72 h, MTT; for S.I. MRC-5/Colo 205: ratio of the indicated IC50 values
Protocol: as §1, §2, §3, §4

[9] = biological target: ABCB1 (P-glycoprotein) efflux pump (Homo sapiens, UniProt P08183); assay: Rhodamine 123 uptake/retention fluorescence assay (flow cytometry) in Colo 320 cells
Protocol: It is important to note, that the resistance of this cell line is primarily mediated by the overexpression of the ABC-transporter P-glycoprotein, which pumps out xenobiotics from the cytosol. […] This dye is membrane-permeable and is rapidly taken up by the cells; therefore, it can be effectively used for the screening of efflux pump inhibiting compounds. […] Then the fluorescence accumulation ratios (FAR) were calculated (Figure 1) according to the equation given in the Materials and Methods section. Verapamil was used as a reference inhibitor compound.
This fluorescence-based detection system uses verapamil (a first-generation, competitive EPI) as reference inhibitor. […] The tested compounds were added at different concentrations (2 and 20 µM; from 1 and 10 mM stock solutions, respectively) and the samples were incubated for 10 min at room temperature.
The parameters evaluated from flow cytometric experiments are forward scatter count (FSC, provides information about cell size); side scatter count (SSC, proportional to cell granularity or internal complexity); mean fluorescence of the cells (FL-1) and the computed FAR and FAR quotients (Table S1).

ABCB1 (P-glycoprotein) efflux pump, sequence (P08183 whole entry): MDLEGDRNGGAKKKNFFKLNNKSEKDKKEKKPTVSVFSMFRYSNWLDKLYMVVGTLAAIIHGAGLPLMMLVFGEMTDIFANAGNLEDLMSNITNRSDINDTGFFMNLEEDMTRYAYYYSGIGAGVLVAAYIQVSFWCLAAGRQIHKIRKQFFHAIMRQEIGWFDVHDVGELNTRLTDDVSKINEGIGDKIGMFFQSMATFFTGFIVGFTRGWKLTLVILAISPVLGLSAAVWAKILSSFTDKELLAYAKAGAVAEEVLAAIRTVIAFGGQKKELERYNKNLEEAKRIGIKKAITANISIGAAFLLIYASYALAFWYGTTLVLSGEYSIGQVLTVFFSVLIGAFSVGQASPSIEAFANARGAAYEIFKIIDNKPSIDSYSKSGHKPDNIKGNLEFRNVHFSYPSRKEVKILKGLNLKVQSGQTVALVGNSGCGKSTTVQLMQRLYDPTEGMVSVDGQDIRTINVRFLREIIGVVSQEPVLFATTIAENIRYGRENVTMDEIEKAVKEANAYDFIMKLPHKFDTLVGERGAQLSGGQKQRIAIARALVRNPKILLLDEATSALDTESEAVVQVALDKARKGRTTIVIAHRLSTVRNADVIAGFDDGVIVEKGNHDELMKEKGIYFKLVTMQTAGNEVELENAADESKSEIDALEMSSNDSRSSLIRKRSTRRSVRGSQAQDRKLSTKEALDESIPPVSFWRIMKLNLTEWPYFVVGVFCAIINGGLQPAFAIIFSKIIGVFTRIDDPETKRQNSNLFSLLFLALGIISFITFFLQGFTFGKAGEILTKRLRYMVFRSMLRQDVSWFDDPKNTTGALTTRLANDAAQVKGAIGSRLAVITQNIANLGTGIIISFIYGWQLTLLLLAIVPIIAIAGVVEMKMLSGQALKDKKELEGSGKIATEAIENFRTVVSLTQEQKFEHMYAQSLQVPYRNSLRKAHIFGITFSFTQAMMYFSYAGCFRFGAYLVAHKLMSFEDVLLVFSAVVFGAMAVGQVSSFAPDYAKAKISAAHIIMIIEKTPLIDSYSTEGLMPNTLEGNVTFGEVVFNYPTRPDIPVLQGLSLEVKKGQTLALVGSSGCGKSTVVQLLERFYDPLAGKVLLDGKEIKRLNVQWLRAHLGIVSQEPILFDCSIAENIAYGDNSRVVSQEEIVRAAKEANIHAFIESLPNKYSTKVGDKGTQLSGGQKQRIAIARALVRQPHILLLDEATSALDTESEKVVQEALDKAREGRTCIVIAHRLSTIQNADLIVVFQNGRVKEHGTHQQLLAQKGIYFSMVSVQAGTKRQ

| SMILES | IC50 [1] [µM] | MIC E. faecalis [2] [µM] | MIC S. aureus [3] [µM] | MIC E. coli [4] [µM] | MIC K. pneumoniae [5] [µM] | recovery [6] [%] | IC50 [7] [µM] | S.I. MRC-5/Colo 320 [7] | IC50 [8] [µM] | S.I. MRC-5/Colo 205 [8] | FAR fluorescence accumulation ratio ([9]; Colo 320, 2 μM) | FAR quotient (FAR related to that of 20 μM verapamil) ([9]; Colo 320, 2 μM) [%] | FSC forward scatter count ([9]; Colo 320, 2 μM) | SSC side scatter count ([9]; Colo 320, 2 μM) | FAR fluorescence accumulation ratio ([9]; Colo 320, 20 μM) | FAR quotient (FAR related to that of 20 μM verapamil) ([9]; Colo 320, 20 μM) [%] | FSC forward scatter count ([9]; Colo 320, 20 μM) | SSC side scatter count ([9]; Colo 320, 20 μM) | FL-1 mean fluorescence of the cells ([9]; Colo 320, rhodamine 123, 2 μM) | FL-1 mean fluorescence of the cells ([9]; Colo 320, rhodamine 123, 20 μM) | other results |
| --- | --- | --- | --- | --- | --- | --- | --- | --- | --- | --- | --- | --- | --- | --- | --- | --- | --- | --- | --- | --- | --- |
| Cc1ccc(C(C)C)cc1.[Cl-].[O-]n1ccccc1=S.[Ru+2] [complex 1] | 2.17 ± 0.22 | 100 | 50 | >100 | >100 | 1.3 | 3.3 ± 1.3 | 0.66 | 14 ± 0.62 | 0.15 | – | – | – | – | – | – | – | – | – | – | Peff, effective passive permeability [6]: 1.13e-06 cm/s |
| C1N2CN3CN1CP(C2)C3.Cc1ccc(C(C)C)cc1.F[P-](F)(F)(F)(F)F.[O-]n1ccccc1=S.[Ru+2] [complex 2] | > 100 | >100 | >100 | >100 | >100 | 15 | > 100 | – | > 100 | – | 1.02 | 21.3 | 2034 | 962 | 1.02 | 21.3 | 2071 | 1024 | 5.4 | 5.41 | Peff, effective passive permeability [6]: 2.88e-06 cm/s |
| Cc1ccc(C(C)C)cc1.[Cl-].[O-]n1ccc2ccccc2c1=S.[Ru+2] [complex 3] | 7.6 ± 1.6 | 12.5 | 12.5 | >100 | >100 | 8.1 | 10.7 ± 1.5 | 0.71 | 17.3 ± 3.1 | 0.44 | – | – | – | – | – | – | – | – | – | – | Peff, effective passive permeability [6]: 3.35e-06 cm/s |
| C1N2CN3CN1CP(C2)C3.Cc1ccc(C(C)C)cc1.F[P-](F)(F)(F)(F)F.[O-]n1ccc2ccccc2c1=S.[Ru+2] [complex 4] | – | >100 | >100 | >100 | >100 | – | > 100 | <0.81 | > 100 | <0.81 | 0.82 | 17.0 | 2014 | 959 | 1.70 | 35.2 | 1977 | 973 | 4.33 | 8.95 | – |
| Cc1ccc(C(C)C)cc1.O=C(C=C([O-])C(F)(F)F)c1ccc(Cl)cc1.[Cl-].[Ru+2] [complex 7] | 26.5 ± 3.2 | 50 | 50 | >100 | >100 | – | 29.1 ± 2 | 0.91 | 52.4 ± 2.7 | 0.51 | 1.11 | 23.1 | 1988 | 946 | 1.31 | 27.3 | 1909 | 900 | 5.86 | 6.94 | – |
| C1N2CN3CN1CP(C2)C3.Cc1ccc(C(C)C)cc1.F[P-](F)(F)(F)(F)F.O=C(C=C([O-])C(F)(F)F)c1ccc(Cl)cc1.[Ru+2] [complex 8] | 17.6 ± 1.5 | 100 | 50 | >100 | >100 | – | 47.8 ± 7.3 | 0.37 | 80.6 ± 1.1 | 0.22 | 0.66 | 13.8 | 1925 | 877 | 1.08 | 22.4 | 1950 | 917 | 3.51 | 5.68 | – |
